Assay [1] has as its target T1, human α1H T-type channels (Homo sapiens, UniProt O95180).
T1 construct: expressed in transfected cells; host or cells: HEK 293
Put plainly: T-type calcium channel block, whole cell patch clamp in HEK cells (α1H). To be noted: HEK cells, patch clamp, mainly non-inactivated protocol; values above 10 μM shown as 10 μM; read-out: T-type Calcium Channel Block α1H IC50. It counts as cell-based.

The target of assay [2] is T2, human α1G T-type channels (Homo sapiens, UniProt O43497).
T2 construct: expressed in transfected cells; host or cells: HEK 293
T2 sequence (O43497 whole entry): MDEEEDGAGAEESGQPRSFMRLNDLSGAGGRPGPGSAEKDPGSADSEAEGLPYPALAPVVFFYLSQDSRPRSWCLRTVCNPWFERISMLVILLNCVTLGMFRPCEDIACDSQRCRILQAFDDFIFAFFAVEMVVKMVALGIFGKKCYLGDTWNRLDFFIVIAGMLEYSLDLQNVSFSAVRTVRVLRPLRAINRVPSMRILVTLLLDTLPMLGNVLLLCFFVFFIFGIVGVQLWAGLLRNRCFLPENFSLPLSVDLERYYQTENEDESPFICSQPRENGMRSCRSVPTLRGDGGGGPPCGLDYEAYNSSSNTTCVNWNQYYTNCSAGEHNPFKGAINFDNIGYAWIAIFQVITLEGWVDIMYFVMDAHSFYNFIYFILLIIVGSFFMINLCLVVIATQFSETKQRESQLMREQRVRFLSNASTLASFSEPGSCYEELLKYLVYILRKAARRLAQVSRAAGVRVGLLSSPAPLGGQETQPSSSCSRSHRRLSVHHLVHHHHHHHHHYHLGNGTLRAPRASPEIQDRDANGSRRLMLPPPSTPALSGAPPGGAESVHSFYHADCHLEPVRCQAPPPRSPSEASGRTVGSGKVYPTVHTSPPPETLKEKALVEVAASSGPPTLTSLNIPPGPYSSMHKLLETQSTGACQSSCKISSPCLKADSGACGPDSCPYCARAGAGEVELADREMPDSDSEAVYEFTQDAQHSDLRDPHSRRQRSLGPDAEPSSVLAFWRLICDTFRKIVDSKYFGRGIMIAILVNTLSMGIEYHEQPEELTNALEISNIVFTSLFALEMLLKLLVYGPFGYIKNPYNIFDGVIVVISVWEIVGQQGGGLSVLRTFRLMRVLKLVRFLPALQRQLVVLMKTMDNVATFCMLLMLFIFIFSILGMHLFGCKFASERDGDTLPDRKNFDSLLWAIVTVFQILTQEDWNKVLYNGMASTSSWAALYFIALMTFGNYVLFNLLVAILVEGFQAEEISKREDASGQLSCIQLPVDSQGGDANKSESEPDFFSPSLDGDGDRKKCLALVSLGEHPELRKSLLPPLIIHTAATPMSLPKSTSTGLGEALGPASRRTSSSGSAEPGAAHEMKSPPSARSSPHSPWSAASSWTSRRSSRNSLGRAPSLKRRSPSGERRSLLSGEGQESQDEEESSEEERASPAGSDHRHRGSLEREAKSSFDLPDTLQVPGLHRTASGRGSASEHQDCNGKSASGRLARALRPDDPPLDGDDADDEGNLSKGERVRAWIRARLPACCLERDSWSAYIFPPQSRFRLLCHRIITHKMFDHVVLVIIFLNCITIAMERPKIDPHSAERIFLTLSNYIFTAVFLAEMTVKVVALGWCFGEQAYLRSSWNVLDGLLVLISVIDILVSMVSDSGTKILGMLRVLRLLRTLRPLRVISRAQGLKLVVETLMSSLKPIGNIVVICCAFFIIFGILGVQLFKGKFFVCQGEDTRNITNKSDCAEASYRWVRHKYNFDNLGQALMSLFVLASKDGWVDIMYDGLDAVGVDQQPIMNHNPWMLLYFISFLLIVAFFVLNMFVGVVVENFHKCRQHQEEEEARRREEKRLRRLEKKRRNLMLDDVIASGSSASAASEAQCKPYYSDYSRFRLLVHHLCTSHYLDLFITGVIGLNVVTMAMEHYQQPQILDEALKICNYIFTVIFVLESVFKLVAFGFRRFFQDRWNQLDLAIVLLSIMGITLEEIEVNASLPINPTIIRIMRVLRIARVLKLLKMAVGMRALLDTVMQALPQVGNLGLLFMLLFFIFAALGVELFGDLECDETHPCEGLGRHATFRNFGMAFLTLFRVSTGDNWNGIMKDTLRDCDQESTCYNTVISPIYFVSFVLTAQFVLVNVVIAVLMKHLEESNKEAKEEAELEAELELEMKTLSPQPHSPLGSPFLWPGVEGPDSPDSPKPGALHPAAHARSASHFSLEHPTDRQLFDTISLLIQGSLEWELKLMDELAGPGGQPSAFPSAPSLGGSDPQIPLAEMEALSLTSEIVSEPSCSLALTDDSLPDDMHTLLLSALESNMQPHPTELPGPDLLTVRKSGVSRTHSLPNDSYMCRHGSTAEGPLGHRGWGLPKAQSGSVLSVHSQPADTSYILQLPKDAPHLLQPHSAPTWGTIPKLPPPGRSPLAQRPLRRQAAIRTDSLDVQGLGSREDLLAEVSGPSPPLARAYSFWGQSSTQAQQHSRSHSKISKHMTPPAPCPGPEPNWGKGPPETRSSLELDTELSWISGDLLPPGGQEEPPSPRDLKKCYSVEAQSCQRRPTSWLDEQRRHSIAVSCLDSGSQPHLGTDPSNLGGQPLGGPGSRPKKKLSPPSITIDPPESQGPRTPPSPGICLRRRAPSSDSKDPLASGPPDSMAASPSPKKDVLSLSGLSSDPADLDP
In words: T-type calcium channel block, whole cell patch clamp in HEK cells (α1G). The format is cell-based. To be noted: HEK cells, patch clamp, mainly non-inactivated protocol; values above 10 μM shown as 10 μM, below 0.30 μM shown as 0.30 μM; read-out: T-type Calcium Channel Block α1G IC50. (In general: In patch-clamp work, channel activity is measured electrically.)

SMILES strings stand for the structures. Bounds are passed on as bounds.

As a reminder, the IC50 is the midpoint of a concentration-inhibition curve.

T1 sequence (O95180 whole entry): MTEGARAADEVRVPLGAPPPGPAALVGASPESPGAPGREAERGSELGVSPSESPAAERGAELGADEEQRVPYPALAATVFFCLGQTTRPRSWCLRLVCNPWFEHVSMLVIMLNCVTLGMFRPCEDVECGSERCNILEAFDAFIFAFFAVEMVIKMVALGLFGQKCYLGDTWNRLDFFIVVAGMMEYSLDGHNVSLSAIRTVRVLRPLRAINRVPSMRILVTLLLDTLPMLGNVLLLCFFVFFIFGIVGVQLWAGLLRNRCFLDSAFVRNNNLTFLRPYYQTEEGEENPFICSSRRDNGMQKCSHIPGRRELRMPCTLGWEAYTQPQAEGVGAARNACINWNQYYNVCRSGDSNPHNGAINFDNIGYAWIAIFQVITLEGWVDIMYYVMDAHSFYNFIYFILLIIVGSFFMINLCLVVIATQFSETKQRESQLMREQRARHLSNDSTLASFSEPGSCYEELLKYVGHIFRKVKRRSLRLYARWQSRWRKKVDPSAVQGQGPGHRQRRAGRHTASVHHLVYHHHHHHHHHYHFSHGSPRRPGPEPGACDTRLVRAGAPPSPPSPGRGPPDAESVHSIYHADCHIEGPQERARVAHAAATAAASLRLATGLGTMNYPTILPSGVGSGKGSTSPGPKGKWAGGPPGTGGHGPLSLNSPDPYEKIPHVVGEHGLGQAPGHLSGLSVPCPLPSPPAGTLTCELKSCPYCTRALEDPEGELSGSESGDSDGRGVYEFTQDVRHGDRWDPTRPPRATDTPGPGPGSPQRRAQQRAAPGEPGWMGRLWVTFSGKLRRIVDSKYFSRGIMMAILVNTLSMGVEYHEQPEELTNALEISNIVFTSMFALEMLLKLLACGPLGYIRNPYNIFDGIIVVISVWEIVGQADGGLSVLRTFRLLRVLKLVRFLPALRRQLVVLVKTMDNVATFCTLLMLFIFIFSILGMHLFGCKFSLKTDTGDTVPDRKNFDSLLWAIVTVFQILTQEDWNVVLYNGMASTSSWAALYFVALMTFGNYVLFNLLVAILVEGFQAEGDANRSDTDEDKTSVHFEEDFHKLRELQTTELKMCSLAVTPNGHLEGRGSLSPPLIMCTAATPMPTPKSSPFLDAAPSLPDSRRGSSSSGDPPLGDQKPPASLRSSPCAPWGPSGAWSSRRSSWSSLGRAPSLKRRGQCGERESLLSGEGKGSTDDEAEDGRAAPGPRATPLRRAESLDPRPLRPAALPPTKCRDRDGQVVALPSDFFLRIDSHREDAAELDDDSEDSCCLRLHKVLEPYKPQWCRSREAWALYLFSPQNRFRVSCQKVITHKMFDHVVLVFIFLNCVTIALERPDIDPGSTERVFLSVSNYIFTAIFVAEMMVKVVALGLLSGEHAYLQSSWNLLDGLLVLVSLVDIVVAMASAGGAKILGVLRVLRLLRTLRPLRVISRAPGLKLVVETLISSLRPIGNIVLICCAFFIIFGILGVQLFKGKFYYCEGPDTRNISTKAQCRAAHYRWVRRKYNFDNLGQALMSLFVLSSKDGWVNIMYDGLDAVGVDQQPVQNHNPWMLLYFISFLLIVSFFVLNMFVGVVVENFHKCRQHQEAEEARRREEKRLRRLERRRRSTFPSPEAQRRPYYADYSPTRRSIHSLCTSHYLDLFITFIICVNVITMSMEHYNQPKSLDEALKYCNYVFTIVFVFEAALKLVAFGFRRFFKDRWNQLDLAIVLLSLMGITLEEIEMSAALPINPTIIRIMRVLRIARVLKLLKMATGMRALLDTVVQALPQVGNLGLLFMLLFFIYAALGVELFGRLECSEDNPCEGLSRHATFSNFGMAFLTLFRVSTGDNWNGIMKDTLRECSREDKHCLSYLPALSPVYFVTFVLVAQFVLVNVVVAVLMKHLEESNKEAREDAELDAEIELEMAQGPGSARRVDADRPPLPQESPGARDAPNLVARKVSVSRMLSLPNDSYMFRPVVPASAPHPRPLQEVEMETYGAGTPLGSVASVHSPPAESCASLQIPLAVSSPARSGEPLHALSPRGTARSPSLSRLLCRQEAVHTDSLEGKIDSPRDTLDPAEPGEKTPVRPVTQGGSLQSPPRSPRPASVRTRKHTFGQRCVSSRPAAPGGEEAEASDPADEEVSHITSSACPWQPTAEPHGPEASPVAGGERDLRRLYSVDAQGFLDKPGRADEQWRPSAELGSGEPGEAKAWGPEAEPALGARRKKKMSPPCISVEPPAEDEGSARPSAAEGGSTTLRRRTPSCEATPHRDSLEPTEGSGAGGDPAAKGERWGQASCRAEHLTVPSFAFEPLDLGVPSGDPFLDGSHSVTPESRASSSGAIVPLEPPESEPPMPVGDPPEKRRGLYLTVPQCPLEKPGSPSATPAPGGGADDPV

Turning to `CC1(NC(=O)CN2CCC(CNC(=O)c3cccc(C(F)(F)F)c3)CC2)CCC1` [Compound 479, N-((1-(2-(1-methylcyclobutylamino)-2-oxoethyl)piperidin-4-yl)methyl)-3-(trifluoromethyl)benzamide], the IC50 in assay [1] was 150 nM; in assay [2], below 300 nM.

With `CCS(=O)(=O)NC1(CN2CCC(CNC(=O)c3cc(C(F)(F)F)cc(C(F)(F)F)c3)CC2)CC1` [Compound 358, N-((1-((1-(ethylsulfonamido)cyclopropyl)methyl)piperidin-4-yl)methyl)-3,5-bis(trifluoromethyl)benzamide], the concentration for half-maximal inhibition (IC50) in assay [1] stood at 530 nM; in assay [2], 520 nM.

As to `CC(C)NC(=O)CN1CCC(CNC(=O)c2cc(F)cc(Cl)c2)CC1` [Compound 443, 3-chloro-5-fluoro-N-((1-(2-(isopropyl-amino)-2-oxoethyl)piperidin-4-yl)methyl)benzamide], the IC50 worked out at 2810 nM in assay [1] and 3310 nM in assay [2].

As for `CC(C(=O)NC(C)(C)C(F)(F)F)N1CCC(CNC(=O)c2cc(F)cc(Cl)c2)CC1` (centres unmarked) [Compound 547, 3-chloro-5-fluoro-N-((1-(1-oxo-1-(1,1,1-trifluoro-2-methylpropan-2-ylamino)propan-2-yl)piperidin-4-yl)methyl)benzamide], the IC50 was 30 nM in assay [1] and below 300 nM in assay [2].

For the compound `CCCNC(=O)CN1CCC(CNC(=O)c2cc(C)cc(F)c2)CC1` [Compound 446, 3-fluoro-5-methyl-N-((1-(2-oxo-2-(propylamino)ethyl)piperidin-4-yl)methyl)benzamide], the IC50 in assay [1] and in assay [2] was above 10000 nM in each case.

On to `COc1cc(F)cc(C(=O)NCC2CCN(CC(=O)NC(C)C)CC2)c1` [Compound 438, 3-fluoro-N-((1-(2-(isopropylamino)-2-oxoethyl)piperidin-4-yl)methyl)-5-methoxybenzamide], for which the IC50 in assay [1] was 1710 nM; in assay [2] it was 3910 nM.

`CC(C)(C)C(=O)NCCN1CCC(CNC(=O)c2cc(C(F)(F)F)ccn2)CC1` [Compound 310, N-((1-(2-pivalamidoethyl)piperidin-4-yl)methyl)-4-(trifluoromethyl) picolinamide]: the IC50 in assay [1] and in assay [2] was above 10000 nM each time.

In the case of `O=C(NCC1CCN(CCNC(=O)C2(C(F)(F)F)CCC2)CC1)c1cc(C(F)(F)F)cc(C(F)(F)F)c1` [Compound 434, 3,5-bis(trifluoromethyl)-N-((1-(2-(1-(trifluoromethyl)cyclobutanecarboxamido)ethyl)piperidin-4-yl)methyl)benzamide], the values for the IC50 in assay [1] and in assay [2] were 60 nM and below 300 nM, respectively.

Take `CC(C)(C)NC(=O)CN1CCC(CNC(=O)c2cc(Br)cc(Br)c2)CC1` [Compound 384, 3,5-dibromo-N-((1-(2-(tert-buylamino)-2-oxoethyl)piperidin-4-yl)methyl)benzamide]: the results for the IC50 in assay [1] and in assay [2] were 90 nM and below 300 nM, respectively.

As for `CCCNC(=O)CN1CCC(CNC(=O)c2cccc(Cl)c2)CC1` [Compound 451, 3-chloro-N-((1-(2-oxo-2-(propylamino)ethyl)piperidin-4-yl)methyl)benzamide], the IC50 in assay [1] and in assay [2] was above 10000 nM throughout.

In the case of `CCCNC(=O)CN1CCC(CNC(=O)c2cccc(C(F)(F)F)c2)CC1` [Compound 449, N-((1-(2-oxo-2-(propylamino)ethyl)piperidin-4-yl)methyl)-3-(trifluoromethyl)benzamide], the IC50 in assay [1] and in assay [2] was above 10000 nM each time.

On to `O=C(CCC(F)(F)F)NCCN1CCC(CNC(=O)c2cccc(C(F)(F)F)c2)CC1` [Compound 313, N-((1-(2-(4,4,4-trifluorobutanamido)ethyl)piperidin-4-yl)methyl)-3-(trifluoromethyl)benzamide], for which the IC50 is 620 nM in assay [1] and 6310 nM in assay [2].

For `O=C(NCC1CCN(CCNS(=O)(=O)C2CC2)CC1)c1cccc(Br)c1` [Compound 323, 3-bromo-N-((1-(2-(cyclopropanesulfonamido)ethyl)piperidin-4-yl)methyl)benzamide], the figures for the IC50 in assay [1] and in assay [2] were 2660 nM and 1870 nM, respectively.

Consider `CC1(NC(=O)CN2CCC(CNC(=O)c3ccc(F)cc3)CC2)CCC1` [Compound 529, 4-fluoro-N-((1-(2-(1-methylcyclobutyl-amino)-2-oxoethyl)piperidin-4-yl)methyl)benzamide], for which the IC50 in assay [1] turned out to be 2510 nM; in assay [2], 5440 nM.

`O=C(NCC1CCN(CCNS(=O)(=O)C2CC2)CC1)c1cc(C(F)(F)F)cc(C(F)(F)F)c1` [Compound 19, N-((1-(2-(cyclopropanesulfonamido)ethyl)piperidin-4-yl)methyl)-3,5-bis(trifluoromethyl)benzamide]: the IC50 in assay [1] was 740 nM; in assay [2], 1740 nM.

On to `CCCNC(=O)CN1CCC(CNC(=O)c2cc(F)cc(Cl)c2)CC1` [Compound 452, 3-chloro-5-fluoro-N-((1-(2-oxo-2-(propylamino)ethyl)piperidin-4-yl)methyl)benzamide], for which the IC50 turned out to be 7920 nM in assay [1] and 4240 nM in assay [2].

In the case of `CS(=O)(=O)NC1(CN2CCC(CNC(=O)c3cc(C(F)(F)F)cc(C(F)(F)F)c3)CC2)CCCC1` [Compound 1, N-((1-((1-(methylsulfonamido)cyclopentyl)methyl)piperidin-4-yl)methyl)-3,5-bis(trifluoromethyl)benzamide], the IC50 in assay [1] is 370 nM; in assay [2], 1010 nM.

As to `O=C(NCC1CCN(C(=O)CN2CCCC(O)C2)CC1)c1cc(C(F)(F)F)cc(C(F)(F)F)c1` (centres unmarked) [Compound 240, N-((1-(2-(3-hydroxypiperidin-1-yl)acetyl)piperidin-4-yl)methyl)-3,5-bis(trifluoromethyl)benzamide], the IC50 in assay [1] and in assay [2] was above 10000 nM in each case.

Regarding `CCCNC(=O)CN1CCC(CNC(=O)c2cc(F)cc(OC)c2)CC1` [Compound 447, 3-fluoro-5-methoxy-N-((1-(2-oxo-2-(propylamino)ethyl)piperidin-4-yl)methyl)benzamide], the IC50 in assay [1] worked out at 3080 nM; in assay [2], 9150 nM.

Turning to `O=C(NCC1CCN(C(=O)CNC2CCCCC2O)CC1)c1cc(F)cc(C(F)(F)F)c1` (centres unmarked) [Compound 275, 3-fluoro-N-((1-(2-(2-hydroxycyclohexylamino)acetyl)piperidin-4-yl)methyl)-5-(trifluoromethyl)benzamide], the IC50 in assay [1] is above 10000 nM; in assay [2] it was 1990 nM.

Turning to `O=C(NCC1CCN(CCNS(=O)(=O)C(F)(F)F)CC1)c1ccc(C(F)(F)F)c(F)c1` [Compound 328, 3-fluoro-4-(trifluoromethyl)-N-((1-(2-(trifluoromethylsulfonamido)ethyl)piperidin-4-yl)methyl)benzamide], the IC50 in assay [1] worked out at 1550 nM; in assay [2] it was 1030 nM.

For the compound `CC(C)(C(=O)NCCN1CCC(CNC(=O)c2cccc(OC(F)(F)F)c2)CC1)C(F)(F)F` [Compound 496, N-((1-(2-(3,3,3-trifluoro-2,2-dimethylpropanamido)ethyl)piperidin-4-yl)methyl)-3-(trifluoromethoxy)benzamide], the values for the IC50 in assay [1] and in assay [2] were 90 nM and below 300 nM, respectively.

With `CC(C)(F)CNC(=O)CN1CCC(CNC(=O)c2cc(F)cc(C(F)(F)F)c2)CC1` [Compound 556, 3-fluoro-N-((1-(2-(2-fluoro-2-methylpropylamino)-2-oxoethyl)piperidin-4-yl)methyl)-5-(trifluoromethyl)benzamide], the IC50 in assay [1] stood at 1770 nM; in assay [2], 1370 nM.

In the case of `O=C(NCC1CCN(CC(=O)N2CCC[C@@H]2C(F)(F)F)CC1)c1cccc(Cl)c1` [Compound 507, (R)-3-chloro-N-((1-(2-oxo-2-(2-(trifluoromethyl)pyrrolidin-1-yl)ethyl)piperidin-4-yl)methyl) benzamide], the values for the IC50 in assay [1] and in assay [2] were 1480 nM and 2980 nM, respectively.

With `CC(C)(C)C(C)(O)C(=O)N1CCC(CNC(=O)c2cc(C(F)(F)F)cc(C(F)(F)F)c2)CC1` (centres unmarked) [Compound 89, N-((1-(2-hydroxy-2,3,3-trimethylbutanoyl)piperidin-4-yl)methyl)-3,5-bis(trifluoromethyl)benzamide], the values for the IC50 in assay [1] and in assay [2] were above 10000 nM and 4100 nM, respectively.

In the case of `CC1(NC(=O)CN2CCC(CNC(=O)c3cccc(OC(F)(F)F)c3)CC2)CCC1` [Compound 483, N-((1-(2-(1-methylcyclobutylamino)-2-oxoethyl)piperidin-4-yl)methyl)-3-(trifluoromethoxy)benzamide], the results for the IC50 in assay [1] and in assay [2] were 110 nM and below 300 nM, respectively.

Turning to `CC1(NC(=O)CN2CCC(CNC(=O)c3cc(F)cc(C(F)(F)F)c3)CC2)CCC1` [Compound 352, 3-fluoro-N-((1-(2-(1-methylcyclo-butylamino)-2-oxoethyl)piperidin-4-yl)methyl)-5-(trifluoromethyl) benzamide], the figures for the IC50 in assay [1] and in assay [2] were 80 nM and below 300 nM, respectively.

As for `O=C(CN1CCC(CNC(=O)c2cccc(Cl)c2)CC1)NC1CCCC1` [Compound 534, 3-chloro-N-((1-(2-(cyclopentylamino)-2-oxoethyl)piperidin-4-yl)methyl) benzamide], the IC50 in assay [1] came out at 420 nM; in assay [2] it was 380 nM.

Turning to `CC(C)(C)C(O)CN1CCC(CC(=O)NCc2ccc(Oc3ccccc3)cc2)CC1` (centres unmarked) [Compound 174, 2-(1-(2-hydroxy-3,3-dimethylbutyl)piperidin-4-yl)-N-(4-phenoxybenzyl) acetamide], the results for the IC50 in assay [1] and in assay [2] were above 10000 nM and 2480 nM, respectively.

As for `COc1cc(F)cc(C(=O)NCC2CCN(CCNS(=O)(=O)C(C)C)CC2)c1` [Compound 318, 3-fluoro-5-methoxy-N-((1-(2-(1-methylethylsulfonamido)ethyl)piperidin-4-yl)methyl)benzamide], the IC50 stood at 870 nM in assay [1] and 500 nM in assay [2].

In the case of `O=C(NCC1CCN(CCNC(=O)C2(C(F)(F)F)CCC2)CC1)c1cccc(Cl)c1` [Compound 512, 3-chloro-N-((1-(2-(1-(trifluoromethyl)cyclobutanecarboxamido)ethyl)piperidin-4-yl)methyl)benzamide], the IC50 was 190 nM in assay [1] and below 300 nM in assay [2].

The values above are taken from patent US8569344B2, “N-piperidinyl acetamide derivatives as calcium channel blockers” (Zalicus Pharmaceuticals Ltd., priority 2008, dated 2013).
